In data set [1] the target is XPO1 (Homo sapiens, UniProt O14980). In words: Compound washout assay in REV-GFP cells. The note with it: for XPO1 inhibition post washout: 400 nM (EC90); for effect on nuclear retention of REV: at EC50 (120 nM). As for the experimental part: In order to evaluate the duration of XPO1 inhibition by test compounds on XPO1 protein after washout, washout assay was performed using REV-GFP cells. The test compounds and positive control were added to the cell well, and the plate was incubated the at 37° C. and 5% CO2 for 1 h. The drug-containing media were removed, the cells were washed, and the fresh media were added. The cells were imagined at the specified time points 0, 4, 24, 48, 72, and 96 hours to evaluate the inhibition of REV nuclear export. […] 4A. […] 4B. […] 4C.

The subject of data set [2] is A549. In words: CellTiter-Glo cell proliferation assay, A549. Format: cell-based. The note with it: Homo sapiens, 72 hours, Table 1, read-out: Growth inhibition (IC50). As for the experimental part:
(§1) CellTiter-Glo® Luminescent Cell Viability assay (with Promega CellTiter 96® Luminescent CellTiter-Glo® kit) was used to study the proliferation inhibition by test compounds. Compounds were resuspended in DMSO to make a 25 mM stock suspension. Cells of cancer cell lines or normal tissues were seeded in 96-well plates at 1,500 to 5,000 cells/well overnight. Compounds were 2- or 3-fold diluted serially to obtain 10 concentrations. Then, the drugs were added to the cell wells by Bravo (Agilent) and incubated for 72 hours. The cells were lysed by adding CellTiter-Glo® Reagent (per manufacturer's instructions) and subsequently, the luminescence was read using EnVision® (PerkinElmer).
(§2) The percent of growth was calculated as follows. DMSO-treated cells were employed as vehicle control (High control, HC) and culture medium alone was employed as background (Low control, EC). % growth=100×(Lum sample−Lum EC)/(Lum HC−Lum EC). The ICso was calculated by concentration-response curve fitting using Graphpad Prism.
(§3) Hematological cancer cell lines tested included OCI-AML3, MV-4-11, KG-1, Kasumi-1, K562, THP-1; solid cancer cell lines tested included U87MG, U251, T98G, LN229, A172, H460, H2009, A549; normal cell lines tested included HCN2 and 3T3-L1. […] However, they were not toxic to in vitro cultured normal cells.

Data set [3] concerns HCT116. In words: Cytotoxicity, cell proliferation assay, HCT116 colon cancer. Type of data set: cell-based. Conditions: Table 8. The method, then:
as §1, §2
(§4) The cytotoxicity of test compounds in brain (HCN2), colon cancer (HCT116) and normal colon cell (C8-B4) lines was determined using the cell proliferation assay as described in Example 19.

The subject of data set [4] is H2009. In words: CellTiter-Glo cell proliferation assay, H2009. Type of data set: cell-based. The note with it: Homo sapiens, NCI-H2009, 72 hours, Table 1, read-out: Growth inhibition (IC50). As for the experimental part:
as §1, §2, §3
(In general: In ATP-based viability assays light output follows the ATP content of the culture.)

In data set [5] the test system is C8-B4. In words: Cytotoxicity, cell proliferation assay, C8-B4. Format: cell-based. Conditions: Table 8. The method, then:
as §1, §2, §4

The subject of data set [6] is 3T3. The experiment in a line: Cytotoxicity, cell proliferation assay, 3T3. Type of data set: cell-based. Conditions: Mus musculus, NIH3T3; Table 9. The method, then: as §1, §2
The cytotoxicity of test compounds was also determined in glioblastoma (U87MG)), brain (HCN2) and 3T3 cell lines was determined using the cell proliferation assay as described in Example 19.

Data set [7] is described as follows: Ratio of brain to plasma. The note with it: rats, 10 mg/kg PO. Type of data set: in vivo. As for the experimental part:
Following collection, brain tissue was rinsed with cold saline, dried on filter paper, weighed and snap-frozen by placing on dry ice. All samples were stored frozen at approximately −80° C. until analysis. At the time of analysis, brain tissue was homogenized (homogenizing solution PBS, pH 7.4), mixed with internal standard in acetonitrile, vortexed, centrifuged, and supernatant was injected for analysis. Concentration of compounds in plasma was determined using LC-MS-MS instrumentation (API 4000, Triple Quadrupole LC/MS/MS Mass Spectrometer). Plasma samples were treated with the identical method (except homogenization step) and the concentration of compound in each matrix was calculated based on generated standard curves.

Data set [8] has as its system U87MG cells. In words: Capase-Glo 317 apoptosis assay. Type of data set: cell-based. Conditions: Homo sapiens, U-87 MG, 72 hours. The method, then:
A Capase-Glo® 317 assay was used to determine the apoptosis activity of test compounds in U87MG cells.
Compounds were dissolved in 25 mM DMSO stock solution and serially diluted. DMSO was used as the vehicle control (high control, HC) and culture medium was used as the background (low control LC). The test compounds were applied to plates and spun at 25° C. at 1,000 RPM for 1 min and shaken on a plate shaker for 2 min. Samples (80 nL) of the compounds from the plates were transferred to 384-well cell culture plates using a liquid handler.
Cells were harvested and the cell numbers counted. 40 μL of the cell suspension with the adjusted density was added to 384-well cell culture pates. The final cell density is 1,000 cells/well. Cell culture medium only was used in the low control (LC) samples. The plates were covered with a lid and placed in a 5% CO2 incur at 37° C. for 72 hours.
After incubating for 72 hours, the plates were removed from the incubator and equilibrated at 25° C. for 15 minutes. CellTiter Glo® regen was incubated at 37° C. before the experiments. 40 μL of Capase-Glo® 317 was added into each well to be detected at a 1:1 ratio to culture medium. The plates were then placed at 25° C. for 30 min and read using an EnSpire® Plate Reader.
The % activity remaining was determined using the following formula: % Remaining Activity=[…]×(Lumsample−LumLC)/(LumHC−LUM LC), where HC is obtained from cells treated with 0.1% DMSO only, LC is obtained from culture medium only.

Data set [9] in a line: Pharmacokinetic profile in plasma. Format: in vivo. Conditions: mouse, iv, I. V., mice.

Sequence of XPO1 (O14980 whole entry): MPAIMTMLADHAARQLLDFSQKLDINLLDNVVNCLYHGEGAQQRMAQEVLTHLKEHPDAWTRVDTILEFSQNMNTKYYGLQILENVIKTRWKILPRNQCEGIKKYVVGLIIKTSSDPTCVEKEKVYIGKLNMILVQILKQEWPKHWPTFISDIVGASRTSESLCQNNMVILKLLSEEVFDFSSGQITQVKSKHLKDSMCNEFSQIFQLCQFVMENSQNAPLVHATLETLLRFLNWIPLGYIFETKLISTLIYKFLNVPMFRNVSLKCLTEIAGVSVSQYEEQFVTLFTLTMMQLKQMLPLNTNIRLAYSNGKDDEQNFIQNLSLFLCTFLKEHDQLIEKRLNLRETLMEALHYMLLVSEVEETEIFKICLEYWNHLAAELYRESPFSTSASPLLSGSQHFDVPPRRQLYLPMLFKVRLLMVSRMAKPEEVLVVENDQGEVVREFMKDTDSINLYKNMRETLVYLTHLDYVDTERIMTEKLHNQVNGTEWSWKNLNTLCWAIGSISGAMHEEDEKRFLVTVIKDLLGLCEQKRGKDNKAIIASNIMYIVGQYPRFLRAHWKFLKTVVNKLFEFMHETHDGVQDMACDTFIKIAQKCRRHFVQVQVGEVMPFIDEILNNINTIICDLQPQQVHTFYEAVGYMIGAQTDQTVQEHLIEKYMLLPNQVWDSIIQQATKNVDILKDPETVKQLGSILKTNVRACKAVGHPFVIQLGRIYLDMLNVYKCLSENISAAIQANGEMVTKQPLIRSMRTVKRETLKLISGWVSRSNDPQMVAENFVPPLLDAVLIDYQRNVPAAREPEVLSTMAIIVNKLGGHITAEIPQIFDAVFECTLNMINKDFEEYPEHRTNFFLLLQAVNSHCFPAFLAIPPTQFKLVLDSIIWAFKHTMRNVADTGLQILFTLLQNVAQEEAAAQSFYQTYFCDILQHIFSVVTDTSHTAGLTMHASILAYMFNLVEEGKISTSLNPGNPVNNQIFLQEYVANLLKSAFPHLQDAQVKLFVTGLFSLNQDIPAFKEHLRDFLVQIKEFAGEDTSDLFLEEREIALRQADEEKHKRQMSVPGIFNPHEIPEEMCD

As to `CC(C)(C)C(=O)NNC(=O)/C=C\n1cnc(-c2cc(C(F)(F)F)cc(S(F)(F)(F)(F)F)c2)n1` [Compound III, (Z)-3-(3-(3-(Pentafluorosulfanyl)-5-(trifluoromethyl)phenyl)-1H-1,2,4-triazol-1-yl)-N′-pivaloylacrylohydrazide], the “XPO1 inhibition post washout” value in data set [1] (4 hours post washout) is listed as “sustained XPO1 inhibition”; in data set [1] (by 24 hours post washout), “gradually diminished”. Further, the “effect on nuclear retention of REV” value in data set [1] (4 hours post washout) is given as 20%; in data set [1] (24 hours post washout), “completely lost”; in [1] (following 1-hour treatment) it was “about 40%”. In data set [1] (washout assay), the “toxicity / cell number compared to the control” value is given as “no decrease in the cell number was observed”.
One may read the IC50 as the concentration that inhibits the measured activity by half. In general, Kp refers to the ratio of the level in a tissue or fluid to that in plasma or blood. Usually EC50 stands for the concentration at which the effect is half-maximal. A high value points to a need for much substance. Usually Emax stands for the maximal effect, on the per cent scale that the assay sets. The AUC(0-t) is exposure summed from dosing to a finite time, without extrapolation to infinity. A high value points to more exposure. The term clearance denotes the rate of elimination divided by the concentration. As a reminder, the half-life is the time needed for the level to fall by half in the phase considered. A low value points to rapid decline. Regarding `O=C(/C=C\n1cnc(-c2cc(C(F)(F)F)cc(S(F)(F)(F)(F)F)c2)n1)NNc1cnccn1` [Compound I, (Z)-3-(3-(3-(pentafluorosulfanyl)-5-(trifluoromethyl)phenyl)-1H-1,2,4-triazol-1-yl)-N′-(pyrazin-2-yl)acrylohydrazide], the concentration for half-maximal inhibition (IC50) in [2] was 1490 nM; in data set [3] (Homo sapiens, HCT-116), 5.96 µM; in data set [4], 521 nM; in data set [5] (C8-B4), 4.3 µM; in data set [6], over 50 µM. In addition, the “HCT116 Max % inh” value in data set [3] was 88%. In addition, the “C8-B4 Max % inh” value in data set [5] came to 91%. The Kp at 0.25 h in [7] (rat, brain/plasma, 0.25 h) stood at 0.386. For the same molecule, in [7] (rat, brain/plasma, 1 h), the Kp at 1 h was found to be 0.707. The Kp at 8 h in data set [7] (rat, brain/plasma, 8 h) was 0.782. In addition, the “brain concentration (second number of pair)” value in [7] (0.25 h) amounted to 319 ng/g; in [7] (1 h), 1301 ng/g; in data set [7] (8 h) it was 194 ng/g. In addition, the figures for the “plasma concentration (first number of pair)” value in [7] (0.25 h), in data set [7] (1 h) and in [7] (8 h) were 810 ng/g, 1887 ng/g and 252 ng/g, respectively. A half-maximal effect in data set [8] (EC50) was put at 16 µM. The same molecule displayed an Emax in [8] (U87MG) of 325%. This molecule gave an AUC(0-t) in [9] of 1040 ng·h/mL. In data set [9], this molecule showed a C0 of 1010 ng/mL. The clearance in data set [9] worked out at 16 mL/min/kg. In addition, the half-life in data set [9] is 97.2 min. Further, the MRT last in data set [9] (read-out: MRT0-last) was determined as 1.56 h. Also, the Vd in [9] (read-out: Vdss) amounted to 1.68 L/kg.

For the origin of these results see US11767313B2, “Compounds as nuclear transport modulators and uses thereof” (XWPHARMA LTD., priority 2018, dated 2023).
